Assay results taken from patent US5686486A, “4-hydroxy-benzopyran-2-ones and 4-hydroxy-cycloalkyl[b]pyran-2-ones useful to treat retroviral infections” (priority 1995, dated 1997).
Several values for one entry are separate records, joined by “and”; a condition that tells them apart may be missing. Equal values may be shown once. Read-outs that look alike come from different tables or passages of the source. One block for each compound: values may come before it.

Target: HIV-1 protease (Human immunodeficiency virus type 1 group M subtype B, UniProt P04585)
Experiment: biochemical
Conditions: for inhibition at 0.123 µM: read-out: HIV-1 Protease % Inhib, dose 0.123 uM; for IC50: HIV-1 Protease IC50
Outline: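 Percent inhibition derived from fluorescent cleavage product separated by filtration after streptavidin-bead capture of intact biotin/FITC substrate. Reaction: enzyme (10 μl, 0.1 μM stock) with substrate (20 μl, 0.2 μM stock) and compound, 1 h at room temperature in dark, pH 5.5 acetate buffer with 1.0 M NaCl and 0.05% NP-40.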

[1] = read-out: HIV-1 Protease % Inhib, dose 1.000 uM
[2] = read-out: HIV-1 Protease % Inhib, dose 10.000 uM
[3] = read-out: HIV-1 Protease % Inhib, dose 100.000 uM
[4] = dose 0.370 uM, read-out: HIV-1 Protease % Inhib
[5] = dose 1.100 uM, read-out: HIV-1 Protease % Inhib
[6] = dose 3.300 uM, read-out: HIV-1 Protease % Inhib
[7] = dose 10.000 uM, read-out: HIV-1 Protease % Inhib
[8] = dose 30.000 uM, read-out: HIV-1 Protease % Inhib
[9] = read-out: HIV-1 Protease % Inhib, dose 0.370 uM
[10] = read-out: HIV-1 Protease % Inhib, dose 1.100 uM
[11] = read-out: HIV-1 Protease % Inhib, dose 3.300 uM
[12] = read-out: HIV-1 Protease % Inhib, dose 30.000 uM

Compound: CCC(c1ccccc1OC)c1c(O)c2ccccc2oc1=O (stereo not drawn) [Example 70, 3-(1'-(2-Methoxyphenyl)propyl)-4-hydroxycoumarin]
inhibition at 1 µM [1]: < 10% | inhibition at 10 µM [2]: 10.2% | inhibition at 100 µM [3]: 72.2%

inhibition at 0.37 µM [4]: 16.9% | inhibition at 1.1 µM [5]: 55% | inhibition at 3.3 µM [6]: 93.3% | inhibition at 10 µM [7]: 101% | inhibition at 30 µM [8]: 100%
Compound: O=c1oc2c(c(O)c1C(c1ccccc1)C1CC1)CCCCC2CC1CCOC1 (stereo not drawn) [Example 191, 3-(Cyclopropylphenylmethyl)-6,7,8,9-tetrahydro-4-hydroxy-9-[(tetrahydro-3-furanyl)methyl]-cyclohepta[b]pyran-2(5H)-one]

Compound: Cn1cnc(S(=O)(=O)Nc2cccc([C@@H](c3c(O)c4c(oc3=O)CCCCCC4)C3CC3)c2)c1 [Example 297, N-[3-[Cyclopropyl(5,6,7,8,9,10-hexahydro-4-hydroxy-2-oxo-2H-cycloocta-3-yl)methyl]phenyl]-1-methyl-(S)-1H-imidazole-4-sulfonamide]
inhibition at 0.123 µM: 72% | inhibition at 0.37 µM [9]: 86% | inhibition at 1.1 µM [10]: 101% | inhibition at 3.3 µM [11]: 99.8% | inhibition at 10 µM [2]: 102% | inhibition at 30 µM [12]: 99.5%

Compound: O=c1oc2c(c(O)c1C(C1CC1)C1CC1)CCCCCC2 [Example 118, 3-(Dicyclopropylmethyl)-5,6,7,8,9,10-hexahydro-4-hydroxy-2H-cycloocta[b]pyran-2-one]
inhibition at 0.41 µM (read-out: HIV-1 Protease % Inhib, dose 0.410 uM): 68.7% | inhibition at 1.23 µM (read-out: HIV-1 Protease % Inhib, dose 1.230 uM): 87.9% | inhibition at 3.7 µM (read-out: HIV-1 Protease % Inhib, dose 3.700 uM): 99% | inhibition at 11 µM (read-out: HIV-1 Protease % Inhib, dose 11.000 uM): 110% | inhibition at 33 µM (read-out: HIV-1 Protease % Inhib, dose 33.000 uM): 103% | inhibition at 100 µM [3]: 105%

Compound: CC(c1cccc(C(=O)NC2c3ccccc3CC2O)c1)c1c(O)c2ccccc2oc1=O (stereo not drawn) [Example 29, Benzamide, N-(2,3-dihydro-2-hydroxy-1H-inden-1-yl)-3-[1-(4-hydroxy-2-oxo-2H-1-benzopyran-3-yl)ethyl]-]
inhibition at 1 µM [1]: < 10% | inhibition at 10 µM [2]: 54.2% | inhibition at 100 µM [3]: 98.4%

Compound: C[C@H](NC(=O)OC(C)(C)C)C(=O)Nc1cccc(C(c2c(O)c3c(oc2=O)CCCCCC3)C2CC2)c1 (stereo partly drawn) [Example 198, Carbamic acid, [2-[[3-[cyclopropyl(5,6,7,8,9,10-hexahydro-4-hydroxy-2-oxo-2H-cycloocta[b]pyran-3-yl)methyl]phenyl]amino]-1-(S)-methyl-2-oxyethyl]-, 1,1-dimethylethyl ester]
inhibition at 0.123 µM: 67.1% | inhibition at 0.37 µM [9]: 91.9% | inhibition at 1.1 µM [10]: 107% | inhibition at 3.3 µM [11]: 111% | inhibition at 10 µM [2]: 115% | inhibition at 30 µM [12]: 116%

Compound: CC(C)C(c1ccccc1)c1c(O)c2c(oc1=O)CCCCCC2 (stereo not drawn) [Example 227, 2H-Cycloocta[b]pyran-2-one,5,6,7,8,9,10-hexahydro-4-hydroxy-3-(2-methyl-1-phenylpropyl)-]
inhibition at 0.37 µM [9]: 41.7% | inhibition at 1.1 µM [10]: 81.1% | inhibition at 3.3 µM [11]: 91.1% | inhibition at 10 µM [2]: 90.1% | inhibition at 30 µM [12]: 80.9%

Compound: CCC(c1cccc(NC(=O)Cc2ccccc2)c1)c1c(O)c2ccccc2oc1=O (stereo not drawn) [Example 55, Coumarin, 4-hydroxy-3-[1-[3-[[(phenylmethyl)carbonyl]amino]phenyl]propyl]-]
inhibition at 1 µM [1]: < 10% | inhibition at 10 µM [2]: < 10% | inhibition at 100 µM [3]: 72%

Compound: O=c1oc2ccccc2c(O)c1C(CCc1ccccc1)Cc1ccccc1 (stereo not drawn) [Example 145, 3-(1-Benzyl-3-phenyl-propyl)4-hydroxy-chromen-2-one]
inhibition at 1 µM [1]: 37% | inhibition at 10 µM [2]: 81% | inhibition at 100 µM [3]: 97%

inhibition at 1 µM (dose 1.000 uM, read-out: HIV-1 Protease % Inhib): < 10% | inhibition at 10 µM [7]: 12.1% | inhibition at 100 µM (dose 100.000 uM, read-out: HIV-1 Protease % Inhib): 74.3%
Compound: O=c1oc2ccccc2c(O)c1C(=Cc1ccccc1)c1ccccc1 [Example 21, 3-(1,2-Diphenylethenyl)4-hydroxycoumarin]

Compound: CCCCS(=O)(=O)Nc1cccc(C(c2c(O)c3c(oc2=O)CCCCCC3)C2CC2)c1 (stereo not drawn) [Example 326, N-[3-[Cyclopropyl(5,6,7,8,9,10-hexahydro-4-hydroxy-2-oxo-2H-cycloocta[b]pyran-3-yl)methyl]phenyl]-1-butanesulfonamide]
inhibition at 0.123 µM: 51.6% | inhibition at 0.37 µM [9]: 92.6% | inhibition at 1.1 µM [10]: 102% | inhibition at 3.3 µM [11]: 106% | inhibition at 10 µM [2]: 114% | inhibition at 30 µM [12]: 121%

inhibition at 0.37 µM [4]: 14.1% | HIV-1 Protease % Inhib (dose 1.100 uM): 36.69% | inhibition at 1.1 µM [5]: 44.1% | HIV-1 Protease % Inhib (dose 3.300 uM): 64.32% | inhibition at 3.3 µM [6]: 68.2% | HIV-1 Protease % Inhib (dose 10.000 uM): 92.75% | inhibition at 10 µM [7]: 85.8% | HIV-1 Protease % Inhib (dose 30.000 uM): 106.21% | inhibition at 30 µM [8]: 86.7%
Compound: Cc1cccc(Cl)c1S(=O)(=O)Nc1cccc(C(c2c(O)c3c(oc2=O)CCCCCC3)C2CC2)c1 (stereo not drawn) [Example 287, 2-Chloro-N-[3-[cyclopropyl(5,6,7,8,9,10-hexahydro4-hydroxy-2-oxo-2H-cycloocta[b]pyran-3-yl)methyl]phenyl]-6-methyl-benzenesulfonamide]

Compound: CC(c1cccc(C(=O)NCc2ccccc2)c1)c1c(O)c2ccccc2oc1=O (stereo not drawn) [Example 28, Coumarin, 4-hydroxy-3-[1-[3-[[(phenylmethyl)amino]carbonyl]phenyl]ethyl]-]
inhibition at 1 µM [1]: < 10% | inhibition at 10 µM [2]: 17.9% | inhibition at 100 µM [3]: 81%

Compound: CCC(c1ccc(Br)cc1)c1c(O)c2ccccc2oc1=O (stereo not drawn) [Example 91, Coumarin, 3-[1-(4-bromophenyl)propyl]-4-hydroxy-]
HIV-1 Protease % Inhib (dose 100.000 uM): 94.41% and 71.61% | inhibition at 1 µM [1]: < 10% | inhibition at 10 µM [2]: 38.4%

Compound: CCC(c1ccc(OC)cc1)c1c(O)c2ccccc2oc1=O (stereo not drawn) [Example 94, Coumarin, 4-hydroxy-3-[1-(4-methoxyphenyl)propyl]-]
HIV-1 Protease % Inhib (dose 100.000 uM): 82.45% | inhibition at 1 µM [1]: < 10% | inhibition at 10 µM [2]: 44.7% | inhibition at 100 µM [3]: 96.4%

inhibition at 3.3 µM [6]: 14.4% | inhibition at 10 µM [7]: 73.6% | inhibition at 30 µM [8]: 86.8%
Compound: O=c1oc2c(c(O)c1C(c1ccc(NS(=O)(=O)c3ccc(Cl)cc3)cc1)C1CC1)CCCCCC2 (stereo not drawn) [Example 473, Benzenesulfonamide, 4-chloro-N-[4-[cyclopropyl(5,6,7,8,9,10-hexahydro-4-hydroxy-2-oxo-2H-cycloocta[b]pyran-3-yl)methyl]phenyl]-]

Compound: O=c1oc2ccccc2c(O)c1C(c1ccccc1)c1ccccc1 [Example 7, 4-Hydroxy-3-diphenylmethylcoumarin]
IC50: 21.2 µM | inhibition at 1 µM [1]: < 10% | inhibition at 10 µM [2]: 42.5% | inhibition at 100 µM [3]: 96.3%

Compound: CCC(c1cccc(NC(=O)CCc2ccc(O)cc2)c1)c1c(O)c2ccccc2oc1=O (stereo not drawn) [Example 62, Coumarin, 4-hydroxy-3-[1-[3-[[3-(4-hydroxyphenyl)-1-oxopropyl]amino]phenyl]propyl]-]
inhibition at 1 µM [1]: < 10% | inhibition at 10 µM [2]: 10.6% | inhibition at 100 µM [3]: 78.3%

inhibition at 1.1 µM [5]: 40.3% | inhibition at 3.3 µM [6]: 72.9% | inhibition at 10 µM [7]: 92.2% | inhibition at 30 µM [8]: 107%
Compound: O=c1oc2c(c(O)c1C(c1cccc(NC(=S)Nc3ccccc3)c1)C1CC1)CCCCCC2 (stereo not drawn) [Example 366, Thiourea, N-[3-[cyclopropyl(5,6,7,8,9,10-hexahydro-4-hydroxy-2-oxo-2H-cycloocta[b]pyran-3-yl)methyl]phenyl]-N'-phenyl-]

Compound: CC(C)(C)OC(=O)N1CCC[C@H]1C(=O)Nc1cccc(C(c2c(O)c3c(oc2=O)CCCCCC3)C2CC2)c1 (stereo partly drawn) [Example 202, 1-(S)-Pyrrolidinecarboxylic acid, 2-[[[3-[cyclopropyl(5,6,7,8,9,10-hexahydro-4-hydroxy-2-oxo-2H-cycloocta[b]pyran-3-yl)methyl]phenyl]amino]carbonyl]-, 1,1-dimethylethyl ester]
inhibition at 0.123 µM: 20.1% | inhibition at 0.37 µM [9]: 48.1% | inhibition at 1.1 µM [10]: 73.1% | inhibition at 3.3 µM [11]: 88.1% | inhibition at 10 µM [2]: 93.8% | inhibition at 30 µM [12]: 94.4%

Compound: O=C(O)c1ccc(S(=O)(=O)Nc2cccc(C(c3c(O)c4c(oc3=O)CCCCCC4)C3CC3)c2)cc1 (stereo not drawn) [Example 276, 4-[[[3-[Cyclopropyl(5,6,7,8,9,10-hexahydro-4-hydroxy-2-oxo-2H-cycloocta[b]pyran-3-yl)methyl]phenyl]amino]sulfonyl]-benzoic acid]
inhibition at 0.123 µM: 53.4% | inhibition at 0.37 µM [9]: 92.8% | inhibition at 1.1 µM [10]: 99.3% | inhibition at 3.3 µM [11]: 94.7% | inhibition at 10 µM [2]: 112% | inhibition at 30 µM [12]: 124%

Compound: CC(C)(c1ccccc1)c1c(O)c2ccccc2oc1=O [Example 39, 3-(α,α-dimethylbenzyl)4-hydroxy coumarin]
IC50: 5 µM | inhibition at 1 µM [1]: 13.8% | inhibition at 10 µM [2]: 69.6% | inhibition at 100 µM [3]: 82%

Compound: O=c1oc2ccccc2c(O)c1C(Cc1ccccc1)c1ccccc1 (stereo not drawn) [Example 13, 3-(1,2-Diphenylethyl)4-hydroxycoumarin]
inhibition at 1 µM [1]: < 10% | inhibition at 10 µM [2]: 34.7% | inhibition at 100 µM [3]: 74.6%

inhibition at 1.1 µM [5]: 37.5% | inhibition at 3.3 µM [6]: 75.6% | inhibition at 10 µM [7]: 102% | inhibition at 30 µM [8]: 110%
Compound: Nc1ccc(C(c2c(O)c3c(oc2=O)CCCCCC3)C2CC2)cc1 (stereo not drawn) [Example 471, 3-[(4-Aminophenyl)cyclopropylmethyl]-5,6,7,8,9,10-hexahydro-4-hydroxy-2H-cycloocta[b]pyran-2-one]
